Bridge positions count the residues as written; N and C are the ends. Square brackets hold non-standard residues; d marks the D form. Peptide text beside a SMILES is read from it.

The term Kd denotes the concentration at which binding is half-saturated. As usually defined, the IC50 is the midpoint of a concentration-inhibition curve. Low values mean greater potency, high ones weaker potency.

The target in series [1] is Mpro (Severe acute respiratory syndrome coronavirus 2, UniProt P0DTD1). The series can be described thus: biochemical. The format is binding, SARS-CoV-2.
For series [2], the target named is NRP1 (Homo sapiens, UniProt O14786). The series can be described thus: biochemical. The format is binding.
Series [3] has as its target SARS-CoV-2 Mpro (Severe acute respiratory syndrome coronavirus 2, UniProt P0DTD1). In words: biochemical. The method, then: According to a previously reported method ([Du et al., 2021]), the FRET-based enzymatic assay was used to evaluate the inhibitory effects of the peptides on Mpro. First, the Mpro (250 nM at a final concentration) was incubated with various concentrations of tested peptides in 90 μL reaction buffer for 30 min in a black 96-well plate, and then the reaction was initiated by adding 10 μL of […] FRET-based peptide substrate (Dabcyl-KTSAVLQ/SGFRKME-Edans). The reaction was monitored for 1 h, and the initial velocity was calculated using the data by linear regression. The IC50 was calculated by plotting the initial velocity against various concentrations of testing inhibitor by using a four parameters dose−response curve in Prism software.

Series [4] relates to FHs 74 Int cells. The series can be described thus: MTT cytotoxicity assay, FHs 74 Int cells. As to conditions: 50 μM, 48 h. It is filed as cell-based, human. The procedure:
According to a previously reported method ([Zheng et al., 2021b]), 293T, A549 and FHs 74 Int cells were plated in 96-well plates at a density of 5 × 10^4 cells per well. After incubation for 24 h, the peptide solution was added into the plates and the cells were incubated for 48 h. After that, the incubation medium was removed, the cells were washed with PBS at pH 7.4, and then MTT stock solution (0.5 mg/ml) was added into each well and incubated for another 4 h. The medium was removed by centrifugation, and the precipitated cells were lysed using DMSO. After the purple crystals were completely dissolved, the cell viability was calculated according to the absorbance signals measured by a microplate reader at the wavelength of 570 nm.
Figure S2. The cytotoxicity effects of MNs 1-4 on FHs 74 Int cells detected using MTT assay. Cells were treated with the concentration of 50 μM of peptides for 48 h. The results are represented as mean ± SD (n = 3).
Background: Formazan colour is commonly taken as a measure of viable cells.

NRP1, sequence (O14786 273-427): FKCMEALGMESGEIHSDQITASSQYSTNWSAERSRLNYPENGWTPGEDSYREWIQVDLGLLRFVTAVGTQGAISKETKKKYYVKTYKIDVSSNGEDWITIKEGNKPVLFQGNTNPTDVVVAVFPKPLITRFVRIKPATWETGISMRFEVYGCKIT

With `CC(C)C[C@@H]1NC(=O)[C@H](C(C)C)NC(=O)[C@H](C)NC(=O)[C@H](Cc2ccccc2)NC(=O)[C@H](CCC(N)=O)NC(=O)[C@H](CC(C)C)NC(=O)[C@@H](Cc2ccccc2)NC(=O)[C@H](N)CSSC[C@H](C(=O)NCC(=O)NCC(=O)NCC(=O)N[C@@H](CCCNC(=N)N)C(=O)N2CCC[C@H]2C(=O)N[C@@H](CCCNC(=N)N)C(=O)N[C@@H](CCCNC(=N)N)C(=O)NCC(=O)N[C@@H](CCCNC(=N)N)C(=O)O)NC(=O)[C@H](CCC(N)=O)NC(=O)[C@H](CCCCN)NC(=O)[C@H](CCCNC(=N)N)NC(=O)[C@H](CCCNC(=N)N)NC(=O)[C@H](Cc2c[nH]cn2)NC(=O)[C@H](CCCNC(=N)N)NC1=O` [MN-1] (H-[dC][dF]LQFAVLRHRRKQ[dC]GGGRPRRGR-OH; disulfide 1-15), the dissociation constant Kd in series [1] stood at 53.4 ± 2.5 nM; in series [2] it was 95.6 ± 4.1 nM. The molecule further registered an IC50 in series [3] of 56.3 ± 3.9 nM.

On to `CC(C)C[C@@H]1NC(=O)[C@H](C(C)C)NC(=O)[C@H](C)NC(=O)[C@H](Cc2ccc(O)cc2)NC(=O)[C@H](CCC(N)=O)NC(=O)[C@H](CC(C)C)NC(=O)[C@@H](Cc2ccccc2)NC(=O)[C@H](N)CSSC[C@H](C(=O)NCC(=O)NCC(=O)NCC(=O)N[C@@H](CCCNC(=N)N)C(=O)N2CCC[C@H]2C(=O)N2CCC[C@H]2C(=O)N[C@@H](CCCNC(=N)N)C(=O)N[C@@H](CCCNC(=N)N)C(=O)N[C@@H](C)C(=O)N[C@@H](CCCNC(=N)N)C(=O)O)NC(=O)[C@H](CCC(=O)O)NC(=O)[C@H](CCCNC(=N)N)NC(=O)[C@H](CCCNC(=N)N)NC(=O)[C@H](CCCCN)NC(=O)[C@H](CCC(N)=O)NC(=O)[C@H](CCCCN)NC1=O` [MN-2] (H-[dC][dF]LQYAVLKQKRRE[dC]GGGRPPRRAR-OH; disulfide 1-15), for which the Kd in series [1] amounted to 18.2 ± 1.9 nM; in series [2], 12.3 ± 1.2 nM. The molecule further had a half-inhibitory concentration (IC50) in series [3] of 20.6 ± 2.2 nM. Moreover, the “viability of FHs 74 Int cells (cytotoxicity)” value in series [4] is “undetectable cytotoxicity”.

Turning to `CC[C@@H](C)[C@H]1NC(=O)[C@H](N)CSSC[C@H](C(=O)NCC(=O)NCC(=O)NCC(=O)N[C@@H](CCCNC(=N)N)C(=O)NCC(=O)N[C@@H](CCC(=O)O)C(=O)N[C@@H](CCCNC(=N)N)C(=O)N2CCC[C@H]2C(=O)N2CCC[C@H]2C(=O)N[C@@H](CCCNC(=N)N)C(=O)O)NC(=O)[C@H](CCCCN)NC(=O)[C@H](CCCNC(=N)N)NC(=O)[C@H](CCC(N)=O)NC(=O)[C@H](CCCNC(=N)N)NC(=O)[C@H](CCCCN)NC(=O)[C@H](CCCCN)NC(=O)[C@H](Cc2ccccc2)NC(=O)[C@H](C(C)C)NC(=O)[C@H](C)NC(=O)[C@H](CC(C)C)NC(=O)[C@H](CCC(N)=O)NC(=O)[C@H](CC(C)C)NC1=O` [MN-3] (H-[dC][dI]LQLAVFKKRQRK[dC]GGGRGERPPR-OH; disulfide 1-15), the figures for the Kd in series [1] and in series [2] were 206 ± 8.8 nM and 110 ± 6.7 nM, respectively. In series [3], this molecule gave an IC50 of 209 ± 7.6 nM.

`CC(C)C[C@@H]1NC(=O)[C@H](CCC(N)=O)NC(=O)[C@H](CCCNC(=N)N)NC(=O)[C@H](C)NC(=O)[C@H](CCCCN)NC(=O)[C@@H]2CSSC[C@@H](C(=O)N[C@@H](CC(=O)O)C(=O)N[C@@H](CCCCN)C(=O)N3CCC[C@H]3C(=O)N[C@@H](CCCNC(=N)N)C(=O)N[C@@H](CCCNC(=N)N)C(=O)O)NC(=O)[C@H](CCCNC(=N)N)NC(=O)[C@H](CSSC[C@H](NC(=O)[C@@H](N)CO)C(=O)N[C@@H](CCCCN)C(=O)N[C@@H](CC(N)=O)C(=O)N[C@@H]([C@@H](C)O)C(=O)N[C@@H](CC(=O)O)C(=O)N[C@@H](CO)C(=O)N[C@@H](CCCNC(=N)N)C(=O)N2)NC(=O)[C@H]([C@@H](C)O)NC(=O)[C@H](CCCNC(=N)N)NC(=O)[C@H](CCC(=O)O)NC(=O)[C@H](CC(N)=O)NC(=O)[C@H](CC(C)C)NC(=O)[C@H](CCC(=O)O)NC1=O` [EG3287, reference compound] (H-SCKNTDSRCKARQLELNERTCRCDKPRR-OH; disulfide 2-21, 9-23; N-terminus assumed): the “Mpro, Kd” value in series [1] (MST, mean ± SD (n = 3)) is “no binding affinity”. The same molecule had an equilibrium dissociation constant (Kd) in series [2] of 912 ± 10.6 nM.

For the molecule `CC(C)C[C@@H]1NC(=O)[C@H](C(C)C)NC(=O)[C@H](C)NC(=O)[C@H](Cc2ccccc2)NC(=O)[C@H](CCC(N)=O)NC(=O)[C@H](CC(C)C)NC(=O)[C@@H](Cc2c[nH]c3ccccc23)NC(=O)[C@H](N)CSSC[C@H](C(=O)NCC(=O)NCC(=O)N[C@@H](CCCNC(=N)N)C(=O)N2CCC[C@H]2C(=O)N[C@@H](C)C(=O)N[C@@H](CCCNC(=N)N)C(=O)N2CCC[C@H]2C(=O)N[C@@H](C)C(=O)N[C@@H](CCCNC(=N)N)C(=O)O)NC(=O)[C@H](C)NC(=O)[C@H](CCC(N)=O)NC(=O)[C@H](CCCCN)NC(=O)[C@H](CCCCN)NC(=O)[C@H](CCC(=O)O)NC(=O)[C@H](CCCNC(=N)N)NC1=O` [MN-4] (H-[dC][dW]LQFAVLREKKQA[dC]GGRPARPAR-OH; disulfide 1-15), the Kd in series [1] amounted to 116 ± 5.5 nM; in series [2] it was 15.1 ± 3.3 nM. This molecule showed a half-inhibitory concentration (IC50) in series [3] of 119 ± 6.1 nM.

Source of the values: publication PMC9666779 (Frontiers in Pharmacology, 2022).
